The record followed here is patent publication US9162010B2, “Drug eluting cochlear implants” (Tepha, Inc., priority 2010, dated 2015).

The subject of data set [1] is NIH-3T3 fibroblasts. Description: Neutral Red assay of NIH-3T3 fibroblast viability. Format: cell-based. As to conditions: for impact on viability of NIH-3T3 cells: concentrations between 10^-12 and 10^-6 mol/L; for effect on NIH-3T3 cell viability: drug at concentrations between 10^-12 and 10^-4 mol/L, relative to control (no drug), 48 hours. The procedure: Cell survival and viability of NIH-3T3 fibroblasts were measured using a Neutral Red Assay. NIH-3T3 fibroblasts were seeded into 96-well cell culture plates at a density of 10^4 cells/well in Dulbecco's Modified Eagle's Medium supplemented with 10% fetal calf serum. After 48 hours, cells were stained using a Neutral Red Assay. Neutral red is taken up only by living cells.
After incubation for 3 hours and several washing steps, cells were permeabilized and the neutral red solubilized in the supernatant. The absorption measured at 570 nm is proportional to the number of living cells. Measurements were run in quintuplicate and results were averaged. The experiment was repeated at least four times.
(§1) Discs (0.1 mm thick and 6 mm in diameter) of poly(L-lactide) (PLLA, Resomer L214, Boehringer Ingelheim Pharma GmbH & Co. KG, Ingelheim, Germany), poly(4-hydroxybutyrate) (P(4HB), Tepha, Inc., Lexington, Mass., USA) and silicone were placed at the bottom of standard 96-well tissue culture plates. Microtiter plates without material additions served as controls. Cells were seeded into each of the different cell culture wells and the assays were carried out as described above in Examples 1 and 2. For absorption measurements when using NIH-3T3 cells and neutral red test, the supernatant of all wells was transferred into new wells after permeabilization of the cells. Surviving spiral ganglion cells were stained directly on the polymer discs and counted.
The NIH-3T3 fibroblasts were cultured and assayed with Neutral Red according to Example 1, except that dexamethasone or sirolimus were added to the cell culture at concentrations between 10^−12 and 10^−4 mol/L. The percentage of viable NIH-3T3 cells was assayed relative to the control (no drug) and the results are shown in FIGS. 2 (dexamethasone) and 3 (sirolimus).

Data set [2] deals with spiral ganglion cells. The data set can be described thus: Spiral ganglion cell survival by anti-neurofilament antibody staining and microscopic counting. Format: cell-based, Sprague-Dawley rats. As to conditions: for impact on viability of SGC: concentrations between 10^-12 and 10^-6 mol/L; for viability (survival) of spiral ganglion cells at high concentration: concentration of 10^-5 mol/L (FIG. 3). Here is the method: Spiral ganglion cells were freshly isolated from Sprague-Dawley rats (p3-5). Viable cells were suspended in Dulbecco's Modified Eagle's Medium supplemented with 10% fetal calf serum and 50 ng/ml BDNF and were seeded onto laminin- and ornithin-coated cell culture plates at a density of 1.5×10^4 cells/well. After a cultivation time of 48 hours, cells were stained with anti-neurofilament antibody and counted under a microscope. All experiments were performed in quadruplicate and the experiment was repeated four times.
as §1

With `C[C@@H]1C[C@H]2[C@@H]3CCC4=CC(=O)C=C[C@]4(C)[C@@]3(F)[C@@H](O)C[C@]2(C)[C@@]1(O)C(=O)CO` [dexamethasone], in data set [1], the “impact on viability of NIH-3T3 cells” value is “do not have an adverse impact” and the “effect on NIH-3T3 cell viability” value is on record as “no toxic effects”. In data set [2] (concentrations between 10^-11 to 10^-7 mol/L (FIG. 2)), the “increase of spiral ganglion cell viability” value is ~20%. In data set [2], the “impact on viability of SGC” value is on record as “do not have an adverse impact”. Moreover, the “effect on spiral ganglion cell viability” value in data set [2] (drug at concentrations between 10^-12 and 10^-4 mol/L, relative to control (no drug), 48 hours) is recorded as “no toxic effects”.

On to `CO[C@H]1C[C@@H]2CC[C@@H](C)[C@@](O)(O2)C(=O)C(=O)N2CCCC[C@H]2C(=O)O[C@H]([C@H](C)C[C@@H]2CC[C@@H](O)[C@H](OC)C2)CC(=O)[C@H](C)/C=C(\C)[C@@H](O)[C@@H](OC)C(=O)[C@H](C)C[C@H](C)/C=C/C=C/C=C/1C` [sirolimus], for which, in data set [1], the “impact on viability of NIH-3T3 cells” value is “do not have an adverse impact” and the “effect on NIH-3T3 cell viability” value is given as “only a small decrease”. In data set [2], the “viability (survival) of spiral ganglion cells at high concentration” value is “reduced” and the “impact on viability of SGC” value is “do not have an adverse impact”. In addition, in data set [2] (listed as Sirolimus), the “viability (survival) of spiral ganglion cells at high concentration” value was “substantially reduced”.
